# Data: patent publication US20210145795A1 (priority 2018, published 2021)
# Entries after “also recorded” stand apart in the source; their conditions may differ. Where two headings read alike, the source gives them in different places.
# Columns and labels:
# USSR H1N1 virus [1] = assay: microbe, parasite or virus in culture; format: cell-based, influenza A virus
# USSR H1N1 virus [2] = assay: microbe, parasite or virus in culture; format: cell-based, influenza A virus; remark: listed apart in the source
# [3] = test system: extracellular Ca^2+ influx; assay: Fluo-8 intracellular Ca2+ monitoring assay (NPTr cells; TG also in other cell types); format: cell-based, pig
# USSR H1N1 virus [4] = format: cell-based, influenza A virus
# in vitro [5] = conditions: human
# pdm H1N1 virus = format: cell-based, influenza A virus
# [6] = CellTiter-Glo luminescent cell viability assay, HEp2 cells; format: cell-based; conditions: human, HEp-2 cells
# Protocol: (§1) Spun supernatants were collected to infect HEp2 cells for 24 h for immuno-detection of RSV. TG doses used to prime HEp2 cells were non-toxic. 30 min TG treated cells were rinsed, cultured overnight and subjected to cell viability assays (CellTiter-Glo® Luminescent Cell Viability Assay kit, Promega. Results are shown in FIG. 22.
# influenza A virus = conditions: MDCK cells, 0.001 μM TG over 48 h of infection; cited from earlier work
# viral NP and M1 protein = format: cell-based, influenza A virus; conditions: 0.5 μM TG (NPTr, myoblasts) or 0.005 μM TG (NHBE) 30 min, USSR H1N1, 24 h
# RIG-I, OAS1 and PKR = format: cell-based, pig
# USSR H1N1 virus [7] = format: cell-based, influenza A virus; remark: listed apart in the source
# DDIT3, HSPA5 and HSP90B1 = format: cell-based, pig; conditions: NPTr cells
# in vitro [8] = conditions: pig
# NHBE cells = conditions: TG concentrations used for priming
# [9] = test system: RSV (A2 strain, ATCC VR-1540); assay: RSV production from primed HEp2 cells (immuno-detection of RSV); format: cell-based, human respiratory syncytial virus
# Protocol: as §1
# Spun supernatants from infected samples were collected to infect HEp2 cells for 24 h for immuno-detection of RSV.
# In further experiments, HEp2 cells were first infected with RSV at 0.1 MOI for 24 or 48 h followed by priming with TG or DMSO control for 30 min. Fresh media were used to replace TG containing media of 24 h infected cells; and supernatants collected earlier from 48 h infected cells were used to replace TG containing media of 48 h infected cells. All samples were infected for total period 72 h. Spun supernatants were collected to infect HEp2 cells for 24 h for RSV immuno-detection. DMSO controls were based on combined control supernatants from 24 and 48 h time points.
# viral M-gene = format: cell-based, influenza A virus; conditions: NPTr cells
molecule,measurement,setting,value
CC1=C2CC[C@@H](C)[C@H]2[C@H]2[C@@H](CC1)C2(C)C [(+)-ledene],progeny virus output,USSR H1N1 virus [1],dramatic reduction in progeny virus output; also recorded: reduced progeny virus output
same,USSR H1N1 virus production,USSR H1N1 virus [2],reduced USSR H1N1 virus production like that of TG
"Cc1nnsc1C(=O)Nc1ccc(-n2nc(C(F)(F)F)cc2C(F)(F)F)cc1 [BTP2, reference compound]",progeny virus release,USSR H1N1 virus [2],small increase in progeny virus release
"CC(=O)C1=C(O)[C@@H]2[C@H]3c4c[nH]c5cccc(c45)C[C@H]3C(C)(C)N2C1=O [CPA, Cyclopiazonic acid]",concentration from which Ca^2+ influx was detected,[3],≥ 10 µM
same,reduction in ATP production,"NPTr cells; 5 μM CPA 30 min, 24 h incubation",8.3%
"COc1ccc(OC)c(-c2ccc(NC(=O)c3ccncc3F)cc2)c1 [Synta66, reference compound]",progeny virus release,USSR H1N1 virus [2],small increase in progeny virus release
"C/C=C(/C)C(=O)O[C@H]1C(C)=C2[C@H]([C@@H]1OC(=O)CCCCCCC)[C@@](C)(OC(C)=O)C[C@H](OC(=O)CCC)[C@@]1(O)[C@H]2OC(=O)[C@@]1(C)O [TG, thapsigargin]",duration of the antiviral state,USSR H1N1 virus [4],at least 24 h
same,CC50,in vitro [5],33.5 µM
same,virus output,USSR H1N1 virus [1],marked reduction in virus output
same,IC50,"USSR H1N1 virus [1]; Influenza A virus, H1N1, NHBE, read-out: USSR virus inhibitory concentration [IC50]",0.00391 µM
same,progeny virus output,"USSR H1N1 virus [1]; NHBE cells, 5 nM TG for 30 min",dramatic reduction in progeny virus output
same,selectivity index (CC50/IC50),"USSR H1N1 virus [1]; NHBE cells, USSR H1N1",8572.89
same,duration of the antiviral state,USSR H1N1 virus [2],at least 24 h
same,virus output,USSR H1N1 virus [2],marked reduction in virus output
same,IC50,"USSR H1N1 virus [2]; Influenza A virus, H1N1, read-out: IC50 (50% reduction of progeny virus)",0.00712 µM
same,virus reduction,USSR H1N1 virus [2]; NPTr cells pre-primed with 0.1 μM TG for 30 min,82%
same,virus reduction,USSR H1N1 virus [2]; NPTr cells pre-primed with 0.5 μM TG for 30 min,93%
same,selectivity index (CC50/IC50),"USSR H1N1 virus [2]; NPTr cells, USSR H1N1",7952.21
same,Ca^2+ influx,"[3]; brief TG exposure (10 min), primary porcine myoblasts, PTECs and NHBE cells, dependent on extracellular Ca^2+",modest Ca^2+ influx
same,"cytotoxic effect on cell viability (ATP production, caspase 3/7 activity)","NPTr cells; NPTr cells, TG concentrations used for priming",no cytotoxic effect on cell viability
same,"virus production, TG before vs after an initial infection period of 6 h","pdm H1N1 virus; NPTr (0.5 μM, pdm H1N1), NHBE (0.01 μM, USSR H1N1), myoblasts (0.5 μM, USSR H1N1), 30 min",comparable reduction in virus production
same,CC50,[6],90 µM
same,progeny influenza virus output,influenza A virus,increase progeny influenza virus output
same,viral NP and M1 protein,viral NP and M1 protein,no or only small reduction in viral NP and M1 protein
same,"expression of type I IFN associated genes (RIG-I, OAS1) in response to infection","RIG-I, OAS1 and PKR; TG priming before or during infection, different cell types",consistently increased the expression of type I IFN associated genes
same,duration of the antiviral state,USSR H1N1 virus [7],at least 24 h
same,virus output,USSR H1N1 virus [7],marked reduction in virus output
same,"expression of ER stress associated genes (DDIT3, HSPA5 and HSP90B1)","DDIT3, HSPA5 and HSP90B1; TG at non-toxic levels, porcine myoblasts and NHBE cells, dose-dependent",consistently elevated ER stress associated genes
same,CC50,in vitro [8],56.6 µM
same,"cytotoxic effect on cell viability (ATP production, caspase 3/7 activity)",NHBE cells,no cytotoxic effect on cell viability
same,duration of sustained anti-viral effect on RSV after priming,"[9]; HEp2 cells, 30 min priming",over 48 h
same,"RSV production, priming during infection","[9]; HEp2 cells, TG 30 min at 48 h post-infection",rapidly effective in blocking virus production
same,RSV production,"[9]; HEp2 cells, TG at non-toxic levels 30 min before infection, RSV 0.1 MOI 3 days",blocks RSV production
same,selectivity index,"[9]; HEp-2 cells, 3 d infection period",1346.499
same,IC50,"[9]; human respiratory syncytial virus, 72 h, HEp-2 cells, 3 d infection period",0.0668 µM
"C[C@@H]1CC[C@H]2[C@@H](C)C(=O)O[C@@H]3O[C@@]4(C)CC[C@@H]1[C@]32OO4 [artemisinin, reference compound]",USSR H1N1 virus production,USSR H1N1 virus [2],reduced USSR H1N1 virus production like that of TG
same,progeny viral output,USSR H1N1 virus [2],reduces progeny viral output
same,progeny viral output,pdm H1N1 virus,reduces progeny viral output
same,viral M-gene expression,viral M-gene; artemisinin 0.1 μM and 1.0 μM,without significant alteration in viral M-gene expression
C=C1C(=O)O[C@@H]2[C@H]3C(C)=CC(=O)C3=C(C)CC[C@@H]12 [dehydroleucodine],progeny virus output,USSR H1N1 virus [1],reduced progeny virus output
CC1=C2[C@H](/C=C(\C)C(=O)O)CC[C@@H](C)[C@H]2CC1 [valerenic acid],USSR H1N1 virus production,USSR H1N1 virus [2],reduced USSR H1N1 virus production like that of TG
Tunicamycin [reference compound],virus production,USSR H1N1 virus [2],only slightly reduced virus production
same,virus production relative to correspondingly infected TG primed cells,"USSR H1N1 virus [2]; NPTr cells, USSR H1N1, tunicamycin primed vs TG 0.5 μM",7.5 times
same,Ca^2+ influx,[3]; tunicamycin at non-toxic doses,did not induce Ca^2+ influx
same,cell viability,"NPTr cells; NPTr cells, tunicamycin 30 min, non-toxic doses",did not affect cell viability
same,virus production relative to correspondingly infected TG primed cells,"pdm H1N1 virus; NPTr cells, pdm H1N1, tunicamycin primed vs TG 0.5 μM",2.8 times
same,"expression of type I IFN associated genes (RIG-I, OAS1 and PKR) in response to infection","RIG-I, OAS1 and PKR; NPTr cells, tunicamycin primed",little change in the expression of type I IFN associated genes
same,"induction of ER stress associated genes, higher than by TG","DDIT3, HSPA5 and HSP90B1; tunicamycin 1.0 μg/ml vs TG 0.5 μM",3 to 8.2 fold
same,viral M-gene expression,viral M-gene; tunicamycin primed,without reduction in viral M-gene expression
dehydroleucodine,USSR H1N1 virus production,USSR H1N1 virus [2],reduced USSR H1N1 virus production like that of TG
